Numbers after ± are expanded uncertainties.
Legend:
[1] = Molar enthalpy of transition or fusion; details: DSC

Structure (SMILES): O=C1COC(=O)CO1 [1,4-dioxane-2,5-dione]
- Molar enthalpy of transition or fusion ([1]; Crystal 1): 3.28 ± 0.335 kcal/mol
- Molar enthalpy of transition or fusion ([1]; Crystal 2): 0.416 ± 0.0478 kcal/mol
- Normal melting temperature (Crystal 1, DTA): 83.00 ± 2 °C
- Triple point temperature (Crystal 2, DSC): 316.55 ± 2.1 K

Source: the NIST ThermoML archive (doi:10.1016/j.jct.2017.03.011)
